“And” between values parts separate entries of the source, which are not always exact repeats. Equal entries are not always repeated. Where two headings read alike, the source gives them in different places. Where no end group is shown, it is not given here.
Experiments:
SK1 isolate of HIV-1 = test system: SK1 isolate of HIV-1
From the text: (§1) ME180 cells, a cervical epithelial cell line, were obtained from the American Type Culture Collection. These cells were thawed from liquid nitrogen and grown in RPMI 1640 medium supplemented with 10t fetal bovine serum, glutamine and antibiotics. The cells were adherent and were trypsinized (0.5% trypsin in HBSS) to remove them from the flask for passaging and use in assays. For use in the microtiter transmission inhibition assay, ME180 cells were trypsinized, washed and seeded in 96-well flat bottom microtiter plates (COSTAR) at a density of 5×10^3 cells per well. The cells were incubated at 37° C. for 24 hours prior to the tart of the assay. H9 cells chronically infected with he SK1 isolate of HIV-1 were treated with 200 μg/ml mitomycin C for 60 minutes at 37° C. After treatment the cells were washed three times with tissue culture medium. The chronically infected lymphocytes were added to each well at a density of 2×10^4 cells per well. The concentration of mitomycin C used in the treatment of the lymphocytes was chosen to allow lymphocyte survival for the period of time required to transmit virus to the uninfected ME180 cells, but to die prior to the time of assay so as not to contribute to the p24 signal used as the endpoint (see below). In the transmission assay the lytic peptides D4E1 and D2A21, with and without 150 μg/ml pig mucin, were added prior to the addition of chronically infected cells or were mixed with the chronically infected cells prior to their addition to the monolayer of ME180 cells. Mucin was included because it is an abundant constituent of the normal vaginal secretions of a human being, thus any chemotherapeutic agent targeting HIV should be active in its presence if it is to have clinical value. […] The lymphocytes and peptide were co-cultured with the ME180 cells for 6 hours and then removed by washing the ME180 monolayer four times with PBS. The plate was then incubated at 37° C. for six days. Medium was removed and changed every 48 hours during the incubation stage. No further peptide was added after the initial dose. At six days post-co-cultivation, the supernatant was removed from the wells and evaluated for the quantity of p24 antigen by ELISA. The ELISA was performed according to the manufacturer's recommendations. The amount of virus production in wells treated with various concentrations of the peptides was evaluated with appropriate cell and virus controls. Data are reported as a percent of virus control at each drug concentration. Linear regression analysis was used to calculate the […] and IC95 concentrations of the transmission inhibitor. […] TI represents the toxicity index, which is the ratio of the TC50/IC50, and is an indication of the relative concentrations window that exists between efficacy and toxicity.

[1] = toxicity (XTT) in transmission inhibition assay; settings: human, ME180 cells
From the text: as §1

ME180 cells = assay: toxicity (XTT) in transmission inhibition assay; settings: for TOXICITY VALUES (XTT), single samples: samples 1-3; for TC50 (concentration at which 50% of cells are eliminated): interpolation from % CC
From the text: as §1

[2] = 0.32 μg/ml, with 150 μg/ml pig mucin
[3] = 1 μg/ml, with 150 μg/ml pig mucin
[4] = 3.2 μg/ml, with 150 μg/ml pig mucin
[5] = 10 μg/ml, with 150 μg/ml pig mucin
[6] = 32 μg/ml, with 150 μg/ml pig mucin
[7] = 100 μg/ml, with 150 μg/ml pig mucin

FAKKFAKKFKKFAKKFAKFAFAF [D2A21]
% VC (p24, percent of virus control) (SK1 isolate of HIV-1; 0.32 μg/ml, no mucin): 81.8% | % VC (p24, percent of virus control) (SK1 isolate of HIV-1; [2]): 33.7% | % VC (p24, percent of virus control) (SK1 isolate of HIV-1; 1 μg/ml, no mucin): 67.3% | % VC (p24, percent of virus control) (SK1 isolate of HIV-1; [3]): 27.7% | % VC (p24, percent of virus control) (SK1 isolate of HIV-1; 3.2 μg/ml, no mucin): 40.6% | % VC (p24, percent of virus control) (SK1 isolate of HIV-1; [4]): 18.8% | % VC (p24, percent of virus control) (SK1 isolate of HIV-1; 10 μg/ml, no mucin): 27.4% | % VC (p24, percent of virus control) (SK1 isolate of HIV-1; [5]): 10.1% | % VC (p24, percent of virus control) (SK1 isolate of HIV-1; 32 μg/ml, no mucin): 2.2% | % VC (p24, percent of virus control) (SK1 isolate of HIV-1; [6]): 0.0% | % VC (p24, percent of virus control) (SK1 isolate of HIV-1; 100 μg/ml, no mucin): 0.0% | TI (toxicity index, TC50/IC50) (SK1 isolate of HIV-1; no mucin): TI = 15 | TI (toxicity index, TC50/IC50) (SK1 isolate of HIV-1; with 150 μg/ml pig mucin): TI = 139 | viability at 6 h, 0.32 µg/mL [1]: 97.6% | viability at 6 h, 1 µg/mL [1]: 100% | viability at 6 h, 3.2 µg/mL [1]: 97.6% | viability at 6 h, 10 µg/mL [1]: 95.9% | viability at 6 h, 32 µg/mL [1]: 61% | viability at 6 h, 100 µg/mL [1]: 16.4% | TOXICITY VALUES (XTT), MEAN (ME180 cells; 0.32 μg/ml, no mucin): 0.515 O.D. @ 450/650 nm | TOXICITY VALUES (XTT), single samples (ME180 cells; 0.32 μg/ml, no mucin): 0.541 O.D. @ 450/650 nm and 0.497 O.D. @ 450/650 nm and 0.506 O.D. @ 450/650 nm | % CC (XTT, percent of cell control) (ME180 cells; [2]): 97.6% | TOXICITY VALUES (XTT), MEAN (ME180 cells; [2]): 0.515 O.D. @ 450/650 nm | TOXICITY VALUES (XTT), single samples (ME180 cells; [2]): 0.541 O.D. @ 450/650 nm and 0.497 O.D. @ 450/650 nm and 0.506 O.D. @ 450/650 nm | TOXICITY VALUES (XTT), MEAN (ME180 cells; 1 μg/ml, no mucin): 0.528 O.D. @ 450/650 nm | TOXICITY VALUES (XTT), single samples (ME180 cells; 1 μg/ml, no mucin): 0.550 O.D. @ 450/650 nm and 0.514 O.D. @ 450/650 nm and 0.520 O.D. @ 450/650 nm | % CC (XTT, percent of cell control) (ME180 cells; [3]): 100.1% | TOXICITY VALUES (XTT), MEAN (ME180 cells; [3]): 0.528 O.D. @ 450/650 nm | TOXICITY VALUES (XTT), single samples (ME180 cells; [3]): 0.550 O.D. @ 450/650 nm and 0.514 O.D. @ 450/650 nm and 0.520 O.D. @ 450/650 nm | TOXICITY VALUES (XTT), MEAN (ME180 cells; 3.2 μg/ml, no mucin): 0.515 O.D. @ 450/650 nm | TOXICITY VALUES (XTT), single samples (ME180 cells; 3.2 μg/ml, no mucin): 0.525 O.D. @ 450/650 nm and 0.513 O.D. @ 450/650 nm and 0.506 O.D. @ 450/650 nm | % CC (XTT, percent of cell control) (ME180 cells; [4]): 97.6% | TOXICITY VALUES (XTT), MEAN (ME180 cells; [4]): 0.515 O.D. @ 450/650 nm | TOXICITY VALUES (XTT), single samples (ME180 cells; [4]): 0.525 O.D. @ 450/650 nm and 0.513 O.D. @ 450/650 nm and 0.506 O.D. @ 450/650 nm | TOXICITY VALUES (XTT), MEAN (ME180 cells; 10 μg/ml, no mucin): 0.506 O.D. @ 450/650 nm | TOXICITY VALUES (XTT), single samples (ME180 cells; 10 μg/ml, no mucin): 0.518 O.D. @ 450/650 nm and 0.506 O.D. @ 450/650 nm and 0.491 O.D. @ 450/650 nm | % CC (XTT, percent of cell control) (ME180 cells; [5]): 95.9% | TOXICITY VALUES (XTT), MEAN (ME180 cells; [5]): 0.506 O.D. @ 450/650 nm | TOXICITY VALUES (XTT), single samples (ME180 cells; [5]): 0.518 O.D. @ 450/650 nm and 0.508 O.D. @ 450/650 nm and 0.491 O.D. @ 450/650 nm | TOXICITY VALUES (XTT), MEAN (ME180 cells; 32 μg/ml, no mucin): 0.322 O.D. @ 450/650 nm | TOXICITY VALUES (XTT), single samples (ME180 cells; 32 μg/ml, no mucin): 0.342 O.D. @ 450/650 nm and 0.315 O.D. @ 450/650 nm and 0.308 O.D. @ 450/650 nm | % CC (XTT, percent of cell control) (ME180 cells; [6]): 61.04% | TOXICITY VALUES (XTT), MEAN (ME180 cells; [6]): 0.322 O.D. @ 450/650 nm | TOXICITY VALUES (XTT), single samples (ME180 cells; [6]): 0.342 O.D. @ 450/650 nm and 0.315 O.D. @ 450/650 nm and 0.308 O.D. @ 450/650 nm | TOXICITY VALUES (XTT), MEAN (ME180 cells; 100 μg/ml, no mucin): 0.087 O.D. @ 450/650 nm | TOXICITY VALUES (XTT), single samples (ME180 cells; 100 μg/ml, no mucin): 0.061 O.D. @ 450/650 nm and 0.083 O.D. @ 450/650 nm and 0.096 O.D. @ 450/650 nm | % CC (XTT, percent of cell control) (ME180 cells; [7]): 16.4% | TOXICITY VALUES (XTT), MEAN (ME180 cells; [7]): 0.087 O.D. @ 450/650 nm | TOXICITY VALUES (XTT), single samples (ME180 cells; [7]): 0.081 O.D. @ 450/650 nm and 0.083 O.D. @ 450/650 nm and 0.096 O.D. @ 450/650 nm | TC50 (concentration at which 50% of cells are eliminated) (ME180 cells; no mucin): TC50 = 39 μg/ml | TC50 (concentration at which 50% of cells are eliminated) (ME180 cells; with 150 μg/ml pig mucin): TC50 39 μg/ml

Reference: patent publication US6514692B2, “Method for treatment of immunodeficiency virus infection” (priority 1996, dated 2003)
